In US20050282743A1, “Molecular interactions in cells” (Arbor Vita Corporation, priority 2001, published 2005):
Ends that are not written are not given here. Peptide text beside a SMILES is read from it. * marks the point of attachment. Biotin = O=C1N[C@H]2[C@H](CS[C@H]2CCCCC(=O)*)N1

What was measured:
Assay type in all cases: binding
[1] = molecular target: T1, PDZ protein (GST-PDZ fusion) (Homo sapiens, UniProt Q6P0Q8); experiment: G' assay (10 uM PL peptide), results of TABLE 7 and TABLE 12
T1 construct: made in house; host or cells: E. coli (DH5alpha, BL21 or JM109)
Method in brief: (§1)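 Biotinylated PL peptides at 10 uM (vs 20 uM in G^0 assay) bound to GST-PDZ fusions; PDZ protein at 5 ug/ml unless another concentration listed. Bound peptide read as A450 nm, classified 0–5 (0 = A450 0; 5 = A450 >4 repeated).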

[2] = molecular target: T2, PDZ protein (GST-PDZ fusion) (Homo sapiens, UniProt Q5T2W1); experiment: as above; conditions: PDZ PDZK1, PDZ Domain 2, 3, 4
T2 construct: made in house; host or cells: E. coli (DH5alpha, BL21 or JM109)
T2 sequence (Q5T2W1 1-519): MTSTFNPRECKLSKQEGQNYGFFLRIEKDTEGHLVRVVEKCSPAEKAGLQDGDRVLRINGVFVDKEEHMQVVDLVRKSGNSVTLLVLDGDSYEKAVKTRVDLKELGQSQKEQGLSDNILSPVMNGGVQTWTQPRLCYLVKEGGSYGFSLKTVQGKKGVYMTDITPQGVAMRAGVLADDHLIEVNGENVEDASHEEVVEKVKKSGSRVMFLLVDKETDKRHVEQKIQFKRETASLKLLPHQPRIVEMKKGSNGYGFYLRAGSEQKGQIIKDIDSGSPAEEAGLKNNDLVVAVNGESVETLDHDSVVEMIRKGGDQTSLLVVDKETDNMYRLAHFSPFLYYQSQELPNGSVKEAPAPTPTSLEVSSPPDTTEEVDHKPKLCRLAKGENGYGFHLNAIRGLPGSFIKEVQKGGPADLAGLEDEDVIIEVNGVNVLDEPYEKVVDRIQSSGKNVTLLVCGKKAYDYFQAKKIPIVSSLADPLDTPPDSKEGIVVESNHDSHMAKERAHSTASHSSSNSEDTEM
Method in brief: as §1

[3] = molecular target: T3, PDZ protein (GST-PDZ fusion) (Homo sapiens, UniProt Q13796); experiment: as above; conditions: PDZ hAPXL, PDZ Domain 1
T3 construct: made in house; host or cells: E. coli (DH5alpha, BL21 or JM109)
Method in brief: as §1

[4] = test system: PDZ protein (GST-PDZ fusion); experiment: as above; conditions: PDZ SHANK, PDZ Domain 1
Method in brief: as §1

[5] = molecular target: T4, PDZ protein (GST-PDZ fusion) (Homo sapiens, UniProt Q13424); experiment: as above; conditions: PDZ Synt. 1 alpha, PDZ Domain 1
T4 construct: made in house; host or cells: E. coli (DH5alpha, BL21 or JM109)
T4 sequence (Q13424 1-505): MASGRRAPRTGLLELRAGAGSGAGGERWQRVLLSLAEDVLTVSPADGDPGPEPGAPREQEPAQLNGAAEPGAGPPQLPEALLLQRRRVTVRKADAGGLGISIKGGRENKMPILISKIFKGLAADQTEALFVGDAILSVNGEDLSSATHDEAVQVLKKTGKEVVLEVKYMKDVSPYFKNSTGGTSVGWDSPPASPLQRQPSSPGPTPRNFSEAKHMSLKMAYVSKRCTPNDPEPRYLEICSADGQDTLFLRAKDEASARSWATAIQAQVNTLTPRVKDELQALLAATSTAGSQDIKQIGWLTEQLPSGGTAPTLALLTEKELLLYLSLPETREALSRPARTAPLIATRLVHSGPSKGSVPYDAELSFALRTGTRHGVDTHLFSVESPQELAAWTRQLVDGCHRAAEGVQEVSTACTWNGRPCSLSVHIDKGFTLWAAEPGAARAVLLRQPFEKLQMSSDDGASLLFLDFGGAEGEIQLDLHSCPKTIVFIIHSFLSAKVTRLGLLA
Method in brief: as §1

[6] = molecular target: T5, PDZ-domain polypeptide (GST/PDZ fusion protein) (Homo sapiens, UniProt Q6P0Q8); experiment: Apparent affinity (Kd) by titration of PL peptide in the G assay; conditions: PDZ KIAA0807(S), PDZ Domain 1; titration of the PL peptide; read-out: Peptide Optimal Conc (Kd, dissociation constant)
T5 construct: made in house; host or cells: E. coli (DH5alpha, BL21 or JM109)
Protocol: The third column labeled “Peptide Optimal Concentration” in the tables is a number reflective of the binding interaction between the PL protein and PDZ protein. […] The column labeled “Protein Optimal Concentration” refers to the protein concentration used to assay PL interaction (in ug/ml); a ‘0’ is indicative of 5 ug/ml protein concentration; any other value represents the concentration (in ug/ml) used to determine the dissociation constant for a given interaction.
The “A” and “G” assays described supra can be used to determine the “apparent affinity” of binding of a PDZ ligand peptide to a PDZ-domain polypeptide. Apparent affinity is determined based on the concentration of one molecule required to saturate the binding of a second molecule (e.g., the binding of a ligand to a receptor). Two particularly useful approaches for quantitation of apparent affinity of PDZ-ligand binding are provided infra.
In cases where satisfying the above criteria proves difficult, an alternative approach (infra) can be used.
(1) A fixed concentration of a PDZ-domain polypeptide and increasing concentrations of a labeled PL peptide (labeled with, for example, biotin or fluorescein, see TABLE 9 for representative peptide amino acid sequences) are mixed together in solution and allowed to react. In certain assays, peptide concentrations are 0.1 uM, 1 uM, 10 uM, 100 uM, 1 mM. In other assays, appropriate reaction times can range from 10 minutes to 2 days at temperatures ranging from 4° C. to 37° C. In some instances, the identical reaction can also be carried out using a non-PDZ domain-containing protein as a control (e.g., if the PDZ-domain polypeptide is fusion protein, the fusion partner can be used).
(2) PDZ-ligand complexes can be separated from unbound labeled peptide using a variety of methods known in the art.
(3) The PDZ-ligand complex is detected based on presence of the label on the peptide ligand using a variety of methods and detectors known to one of skill in the art. For example, if the label is fluorescein and the separation is achieved using HPSEC, an in-line fluorescence detector can be used. The binding can also be detected as described supra for the G assay.

[7] = molecular target: T6, PDZ protein (GST-PDZ fusion) (Homo sapiens, UniProt Q9P202); experiment: G' assay (10 uM PL peptide), results of TABLE 7 and TABLE 12; conditions: PDZ KIAA1526, PDZ Domain 1
T6 construct: made in house; host or cells: E. coli (DH5alpha, BL21 or JM109)
T6 sequence (Q9P202 1-907): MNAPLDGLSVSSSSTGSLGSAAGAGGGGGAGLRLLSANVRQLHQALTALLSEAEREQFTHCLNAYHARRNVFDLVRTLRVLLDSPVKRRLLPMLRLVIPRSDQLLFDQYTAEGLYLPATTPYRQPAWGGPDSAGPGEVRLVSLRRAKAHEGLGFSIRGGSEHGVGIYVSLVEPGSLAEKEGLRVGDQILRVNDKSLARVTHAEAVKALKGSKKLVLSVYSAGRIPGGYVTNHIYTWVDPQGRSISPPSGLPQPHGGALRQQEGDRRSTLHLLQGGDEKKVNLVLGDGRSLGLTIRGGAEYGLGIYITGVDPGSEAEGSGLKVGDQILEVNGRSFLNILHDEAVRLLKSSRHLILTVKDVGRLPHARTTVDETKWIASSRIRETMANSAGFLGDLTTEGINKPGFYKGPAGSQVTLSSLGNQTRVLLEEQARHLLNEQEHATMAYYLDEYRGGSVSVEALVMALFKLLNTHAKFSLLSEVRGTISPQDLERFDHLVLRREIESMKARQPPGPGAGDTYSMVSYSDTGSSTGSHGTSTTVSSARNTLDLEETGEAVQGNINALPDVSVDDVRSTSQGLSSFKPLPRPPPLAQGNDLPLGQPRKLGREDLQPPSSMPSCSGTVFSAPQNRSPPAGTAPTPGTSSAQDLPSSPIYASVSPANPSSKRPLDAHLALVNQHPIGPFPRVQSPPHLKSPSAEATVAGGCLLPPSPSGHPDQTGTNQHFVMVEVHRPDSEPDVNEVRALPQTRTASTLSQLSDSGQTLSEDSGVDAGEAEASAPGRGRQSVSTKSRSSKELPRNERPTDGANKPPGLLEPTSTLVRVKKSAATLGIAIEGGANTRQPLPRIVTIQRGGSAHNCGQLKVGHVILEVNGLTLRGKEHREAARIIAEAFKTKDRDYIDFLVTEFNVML
Method in brief: as §1

[8] = molecular target: T7, PDZ protein (GST-PDZ fusion) (Homo sapiens, UniProt P57105); experiment: as above; conditions: PDZ Outer Membrane, PDZ Domain 1
T7 construct: made in house; host or cells: E. coli (DH5alpha, BL21 or JM109)
T7 sequence (P57105 1-145): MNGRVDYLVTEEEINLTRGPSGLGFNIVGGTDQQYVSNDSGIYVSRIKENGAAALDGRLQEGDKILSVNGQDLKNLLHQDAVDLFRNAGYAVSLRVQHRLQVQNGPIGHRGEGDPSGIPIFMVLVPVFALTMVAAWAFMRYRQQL
Method in brief: as §1

T1 sequence (Q6P0Q8 whole entry, the tested form may be a part): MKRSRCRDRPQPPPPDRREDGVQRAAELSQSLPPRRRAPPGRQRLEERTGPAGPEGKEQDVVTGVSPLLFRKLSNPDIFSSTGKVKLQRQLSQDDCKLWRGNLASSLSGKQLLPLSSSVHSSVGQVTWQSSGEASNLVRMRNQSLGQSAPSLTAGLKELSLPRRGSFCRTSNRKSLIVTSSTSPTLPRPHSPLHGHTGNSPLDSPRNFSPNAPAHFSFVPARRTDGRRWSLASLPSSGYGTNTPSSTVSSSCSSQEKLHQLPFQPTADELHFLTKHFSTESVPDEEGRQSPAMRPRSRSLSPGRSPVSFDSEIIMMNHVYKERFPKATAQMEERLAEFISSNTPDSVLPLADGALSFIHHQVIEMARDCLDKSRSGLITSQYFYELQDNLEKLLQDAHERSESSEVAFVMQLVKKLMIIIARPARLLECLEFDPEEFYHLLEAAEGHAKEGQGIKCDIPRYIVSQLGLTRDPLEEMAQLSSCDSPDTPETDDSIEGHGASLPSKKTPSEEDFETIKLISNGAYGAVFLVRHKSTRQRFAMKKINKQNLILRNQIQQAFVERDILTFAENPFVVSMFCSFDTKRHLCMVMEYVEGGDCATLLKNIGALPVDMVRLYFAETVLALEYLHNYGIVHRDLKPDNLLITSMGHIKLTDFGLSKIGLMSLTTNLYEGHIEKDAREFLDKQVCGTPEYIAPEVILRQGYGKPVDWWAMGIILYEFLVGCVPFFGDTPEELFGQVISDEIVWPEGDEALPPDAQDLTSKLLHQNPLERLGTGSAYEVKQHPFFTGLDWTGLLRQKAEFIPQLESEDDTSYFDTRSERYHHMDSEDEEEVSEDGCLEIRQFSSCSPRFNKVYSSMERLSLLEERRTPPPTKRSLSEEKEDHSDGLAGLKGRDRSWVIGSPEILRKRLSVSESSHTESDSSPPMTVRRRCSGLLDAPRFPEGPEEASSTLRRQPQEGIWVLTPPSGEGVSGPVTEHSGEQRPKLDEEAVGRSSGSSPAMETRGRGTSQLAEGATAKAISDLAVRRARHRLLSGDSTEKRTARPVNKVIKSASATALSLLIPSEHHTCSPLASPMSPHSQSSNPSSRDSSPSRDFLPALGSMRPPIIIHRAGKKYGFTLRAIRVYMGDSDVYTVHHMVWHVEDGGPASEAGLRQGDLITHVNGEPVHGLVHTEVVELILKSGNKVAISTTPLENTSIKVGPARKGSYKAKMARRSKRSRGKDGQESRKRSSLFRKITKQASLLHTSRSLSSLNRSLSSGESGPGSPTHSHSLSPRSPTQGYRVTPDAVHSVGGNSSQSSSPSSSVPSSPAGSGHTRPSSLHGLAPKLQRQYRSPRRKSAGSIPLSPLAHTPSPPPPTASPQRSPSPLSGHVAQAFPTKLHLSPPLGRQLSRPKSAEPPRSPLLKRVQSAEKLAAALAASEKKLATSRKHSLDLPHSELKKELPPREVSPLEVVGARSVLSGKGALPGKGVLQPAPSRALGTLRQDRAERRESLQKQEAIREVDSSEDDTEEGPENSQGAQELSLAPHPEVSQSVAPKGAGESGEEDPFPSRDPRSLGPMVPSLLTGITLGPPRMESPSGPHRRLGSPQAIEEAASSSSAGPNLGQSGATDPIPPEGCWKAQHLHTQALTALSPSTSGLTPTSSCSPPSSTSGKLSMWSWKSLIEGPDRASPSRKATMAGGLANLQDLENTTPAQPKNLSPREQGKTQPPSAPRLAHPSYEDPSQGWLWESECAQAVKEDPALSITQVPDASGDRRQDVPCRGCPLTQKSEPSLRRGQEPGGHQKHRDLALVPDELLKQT
T3 sequence (Q13796 whole entry, the tested form may be a part): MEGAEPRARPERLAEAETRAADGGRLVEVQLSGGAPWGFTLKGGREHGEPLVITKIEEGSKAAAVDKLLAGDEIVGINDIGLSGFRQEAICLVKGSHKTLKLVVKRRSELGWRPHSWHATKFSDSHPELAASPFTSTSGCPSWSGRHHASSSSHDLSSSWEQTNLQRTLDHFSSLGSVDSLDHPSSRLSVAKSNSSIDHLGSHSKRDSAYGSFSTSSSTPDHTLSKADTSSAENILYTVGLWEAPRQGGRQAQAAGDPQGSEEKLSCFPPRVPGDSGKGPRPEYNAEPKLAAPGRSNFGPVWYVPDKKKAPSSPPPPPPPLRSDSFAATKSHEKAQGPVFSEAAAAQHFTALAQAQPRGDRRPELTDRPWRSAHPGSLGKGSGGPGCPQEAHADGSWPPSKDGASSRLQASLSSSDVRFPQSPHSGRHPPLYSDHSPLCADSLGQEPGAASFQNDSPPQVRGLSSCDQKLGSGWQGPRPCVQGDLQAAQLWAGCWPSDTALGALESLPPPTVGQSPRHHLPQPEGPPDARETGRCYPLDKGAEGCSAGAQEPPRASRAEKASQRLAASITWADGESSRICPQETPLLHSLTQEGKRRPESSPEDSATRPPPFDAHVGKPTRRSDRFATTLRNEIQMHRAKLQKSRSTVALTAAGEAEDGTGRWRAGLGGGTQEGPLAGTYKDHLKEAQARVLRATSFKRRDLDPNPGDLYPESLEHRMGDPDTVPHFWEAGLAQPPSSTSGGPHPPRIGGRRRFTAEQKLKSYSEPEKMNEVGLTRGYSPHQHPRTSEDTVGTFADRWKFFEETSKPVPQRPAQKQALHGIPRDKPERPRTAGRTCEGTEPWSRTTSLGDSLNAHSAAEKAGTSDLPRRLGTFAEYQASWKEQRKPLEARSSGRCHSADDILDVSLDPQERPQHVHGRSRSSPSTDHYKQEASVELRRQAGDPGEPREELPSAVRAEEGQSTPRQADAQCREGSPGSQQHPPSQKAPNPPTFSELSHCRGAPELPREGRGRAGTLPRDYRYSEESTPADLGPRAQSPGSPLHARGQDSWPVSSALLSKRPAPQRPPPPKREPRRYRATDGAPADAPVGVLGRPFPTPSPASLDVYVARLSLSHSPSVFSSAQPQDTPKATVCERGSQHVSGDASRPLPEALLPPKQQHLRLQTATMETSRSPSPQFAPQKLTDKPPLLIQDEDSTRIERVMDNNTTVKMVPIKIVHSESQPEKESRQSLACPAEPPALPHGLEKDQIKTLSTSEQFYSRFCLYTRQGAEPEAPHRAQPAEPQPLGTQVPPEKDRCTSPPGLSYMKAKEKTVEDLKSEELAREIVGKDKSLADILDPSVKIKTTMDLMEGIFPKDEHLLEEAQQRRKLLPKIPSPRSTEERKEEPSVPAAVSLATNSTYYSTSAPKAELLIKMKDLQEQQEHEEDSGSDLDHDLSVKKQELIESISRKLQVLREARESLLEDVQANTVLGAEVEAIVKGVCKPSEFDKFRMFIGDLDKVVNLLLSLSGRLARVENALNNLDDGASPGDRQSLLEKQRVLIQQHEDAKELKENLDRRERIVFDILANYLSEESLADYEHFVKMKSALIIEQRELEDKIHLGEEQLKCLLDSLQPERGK

| Molecule | Classification ([1]; PDZ KIAA807) | Classification ([1]; PDZ KIAA0807(S), PDZ Domain 1) | Classification [2] | Classification [3] | Classification [4] | Classification [5] | Kd [6] [µM] | Classification [7] | Classification ([1]; PDZ KIAA807, PDZ Domain not given) | Classification [8] |
| --- | --- | --- | --- | --- | --- | --- | --- | --- | --- | --- |
| DAKLKSDGTIAAITEKETHF (Biotin-DAKLKSDGTIAAITEKETHF) [GABA transporter 3] | 1 (A450 nm 0-1) | 1 (A450 nm 0-1) | 1 (A450 nm 0-1) | 1 (A450 nm 0-1) | 1 (A450 nm 0-1) | 1 (A450 nm 0-1) |  |  |  |  |
| CC[C@H](C)[C@H](NC(=O)[C@H](CO)NC(=O)[C@@H](NC(=O)CNC(=O)[C@H](CCCNC(=N)N)NC(=O)[C@H](CC(=O)O)NC(=O)[C@@H]1CCCN1C(=O)[C@H](CC(=O)O)NC(=O)[C@H](CC(N)=O)NC(=O)CNC(=O)[C@H](CC(C)C)NC(=O)[C@H](CC(N)=O)NC(=O)[C@H](CC(C)C)NC(=O)CNC(=O)[C@H](CC(C)C)NC(=O)[C@@H](NC(=O)[C@@H]1CCCN1C(=O)[C@@H](NC(=O)[C@@H]1CCCN1C(=O)[C@H](CCC(N)=O)NC(=O)CCCC[C@@H]1SC[C@@H]2NC(=O)N[C@@H]21)[C@@H](C)O)[C@@H](C)O)[C@@H](C)O)C(=O)O [GluR delta-2] (Biotin-QPTPTLGLNLGNDPDRGTSI-OH; C-terminus assumed) |  | 4 (A450 nm 3-4) |  |  |  |  | 4 | 2 (A450 nm 1-2) | 3 (A450 nm 2-3) | 2 (A450 nm 1-2) |
